Source: the supplement of paper PMC10307832

Columns and labels:
Assay in all cases: relative viability (nuclei count vs DMSO), 5 days (fraction); higher = more cells survive
[1] = compound: CCCS(=O)(=O)Nc1ccc(F)c(C(=O)c2c[nH]c3ncc(-c4ccc(Cl)cc4)cc23)c1F [Vemurafenib] + Cc1cc(Nc2cc(N3CCN(C)CC3)nc(Sc3ccc(NC(=O)C4CC4)cc3)n2)n[nH]1 [Tozasertib] (partner 0.1 µM)
How it was run: (§1)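 Lung cancer cell lines in 1536-well plates got either a single drug or a fixed anchor-drug dose together with five library-drug doses (not always all listed) in √10 steps, by pin tool, on the day after seeding. Nuclei were counted after 5 days, and relative viability is the treated-to-vehicle ratio of nuclei counts. Values are medians of duplicate plates.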

[2] = compound: COc1cccc2cc(-c3nc([C@H]4CC[C@H](C(=O)O)CC4)n4ncnc(N)c34)[nH]c12 [OSI-027] + CC(C)C[C@H](NC(=O)[C@H](Cc1ccccc1)NC(=O)c1cnccn1)B(O)O [Bortezomib] (partner 0.002 µM)
How it was run: as §1

[3] = compound: CCCS(=O)(=O)Nc1ccc(F)c(C(=O)c2c[nH]c3ncc(-c4ccc(Cl)cc4)cc23)c1F [Vemurafenib] + COc1cc2c(Oc3ccc(NC(=O)C4(C(=O)Nc5ccc(F)cc5)CC4)cc3F)ccnc2cc1OCCCN1CCOCC1 [Foretinib] (partner 0.25 µM)
How it was run: as §1

[4] = compound: Cc1nc(NC(=O)N2CCC[C@H]2C(N)=O)sc1-c1ccnc(C(C)(C)C(F)(F)F)c1 [Alpelisib] + CC(=O)Nc1cccc(-n2c(=O)n(C3CC3)c(=O)c3c(Nc4ccc(I)cc4F)n(C)c(=O)c(C)c32)c1 [Trametinib] (partner 0.02 µM)
How it was run: as §1

Cell Line: NCI-H2009
- relative viability ([1]; first compound 0.03162 µM): 0.698
- relative viability ([1]; first compound 0.1 µM): 0.644
- relative viability ([1]; first compound 0.3162 µM): 0.625
- relative viability ([1]; first compound 1 µM): 0.648
- relative viability ([2]; first compound 0.01 µM): 1.07
- relative viability ([2]; first compound 0.03162 µM): 1.09
- relative viability ([2]; first compound 0.1 µM): 0.933
- relative viability ([2]; first compound 0.3162 µM): 0.929
- relative viability ([2]; first compound 1 µM): 0.592
- relative viability ([3]; first compound 0.03162 µM): 1.19
- relative viability ([3]; first compound 0.1 µM): 1.18
- relative viability ([3]; first compound 0.3162 µM): 1.06
- relative viability ([3]; first compound 1 µM): 1.06
- relative viability ([4]; first compound 0.04 µM): 0.264
- relative viability ([4]; first compound 0.1265 µM): 0.276
- relative viability ([4]; first compound 0.4 µM): 0.28
- relative viability ([4]; first compound 1.265 µM): 0.285
- relative viability ([4]; first compound 4 µM): 0.224

Cell Line: NCI-H2023
- relative viability ([1]; first compound 0.03162 µM): 0.335
- relative viability ([1]; first compound 0.1 µM): 0.241
- relative viability ([1]; first compound 0.3162 µM): 0.273
- relative viability ([1]; first compound 1 µM): 0.18
- relative viability ([2]; first compound 0.01 µM): 0.944
- relative viability ([2]; first compound 0.03162 µM): 0.926
- relative viability ([2]; first compound 0.1 µM): 0.898
- relative viability ([2]; first compound 0.3162 µM): 0.687
- relative viability ([2]; first compound 1 µM): 0.358
- relative viability ([3]; first compound 0.03162 µM): 0.881
- relative viability ([3]; first compound 0.1 µM): 0.811
- relative viability ([3]; first compound 0.3162 µM): 1.09
- relative viability ([3]; first compound 1 µM): 0.742
- relative viability ([4]; first compound 0.04 µM): 0.532
- relative viability ([4]; first compound 0.1265 µM): 0.452
- relative viability ([4]; first compound 0.4 µM): 0.538
- relative viability ([4]; first compound 1.265 µM): 0.287
- relative viability ([4]; first compound 4 µM): 0.208

Cell Line: NCI-H2085
- relative viability ([1]; first compound 0.03162 µM): 0.754
- relative viability ([1]; first compound 0.1 µM): 0.727
- relative viability ([1]; first compound 0.3162 µM): 0.802
- relative viability ([1]; first compound 1 µM): 0.508
- relative viability ([2]; first compound 0.01 µM): 1.11
- relative viability ([2]; first compound 0.03162 µM): 0.965
- relative viability ([2]; first compound 0.1 µM): 0.95
- relative viability ([2]; first compound 0.3162 µM): 0.977
- relative viability ([2]; first compound 1 µM): 0.853
- relative viability ([3]; first compound 0.03162 µM): 0.856
- relative viability ([3]; first compound 0.1 µM): 0.92
- relative viability ([3]; first compound 0.3162 µM): 1.26
- relative viability ([3]; first compound 1 µM): 0.902
- relative viability ([4]; first compound 0.04 µM): 0.57
- relative viability ([4]; first compound 0.1265 µM): 0.468
- relative viability ([4]; first compound 0.4 µM): 0.496
- relative viability ([4]; first compound 1.265 µM): 0.495
- relative viability ([4]; first compound 4 µM): 0.338

Cell Line: NCI-H2087
- relative viability ([1]; first compound 0.03162 µM): 0.249
- relative viability ([1]; first compound 0.1 µM): 0.236
- relative viability ([1]; first compound 1 µM): 0.132
- relative viability ([2]; first compound 0.01 µM): 0.82
- relative viability ([2]; first compound 0.03162 µM): 0.879
- relative viability ([2]; first compound 0.1 µM): 0.938
- relative viability ([2]; first compound 0.3162 µM): 0.859
- relative viability ([2]; first compound 1 µM): 0.412
- relative viability ([3]; first compound 0.03162 µM): 1.02
- relative viability ([3]; first compound 0.1 µM): 0.979
- relative viability ([3]; first compound 1 µM): 1.12
- relative viability ([4]; first compound 0.04 µM): 0.183
- relative viability ([4]; first compound 0.1265 µM): 0.174
- relative viability ([4]; first compound 0.4 µM): 0.195
- relative viability ([4]; first compound 1.265 µM): 0.163
- relative viability ([4]; first compound 4 µM): 0.164
